Test results from US8470340B2, “Peptides presenting an epitope of a domain of factor H binding protein and methods of use” (priority 2008, dated 2013).

B1: K27A: recombinant v.1 fHbp (gene from MC58) with residue 27 changed to alanine (protein)
chain: CSSGGGGVAADIGAGLADALTAPLDHADKGLQSLTLDQSVRKNEKLKLAAQGAEKTYGNGDSLNTGKLKNDKVSRFDFIRQIEVDGQLITLESGEFQVYKQSHSALTAFQTEQIQDSEHSGKMVAKRQFRIGDIAGEHTSFDKLPEGGRATYRGTAFGSDDAGGKLTYTIDFAAKQGNGKIEHLKSPELNVDLAAADIKPDGKRHAVISGSVLYNQAEKGSYSLGIFGGKAQEVAGSAEVKTVNGIRHIGLAAKQHHHHHH

What was measured:
[1] = system: JAR 4; test: ELISA binding of native fHbp sequence peptides; design: species or system murine; conditions: peptides from the native v.1 fHbp sequence
[2] = system: JAR 4; test: ELISA binding of mAb to site-specific mutant recombinant v.1 fHbp; design: species or system murine; conditions: v.1 fHbp (gene from MC58) alanine mutant
Protocol: Site-specific mutagenesis was used to test the role of amino acid residues involved in the JAR 4 anti-fHbp mAb epitope. Mutagenesis was performed using the QuikChange II kit (Stratagene) using 10 ng of plasmid template and the manufacturer's protocols. For testing residues putatively involved in mAb epitopes, mutagenesis reactions were performed on pET21-based plasmids encoding a wild-type fHbp gene. Site-specific mutagenesis was used to introduce the H26A and K27A substitution into the pET21 plasmid encoding v.1 fHbp from MC58. Mutant fHbp genes were confirmed by DNA sequencing as described for the wild-type plasmids, above.
Site-directed mutagenesis of residues 25, 26 and 27 was performed, each of which was individually changed to alanine in fHbp from the v.1 group (gene from MC58). These mutants were created using the non-signal containing sequence from strain MC58 (MVAAD . . . GLAAKQ) (SEQ ID NO:73), and are referred to as D25A, H26A and K27A, respectively. The amino acid sequences of the portions of the A domains of these mutants is provided in FIG. 7, Panel A. Results of the binding experiment between mutated fHbp and the various JAR mAbs are shown in FIG. 6.

Molecule | binding to JAR 4 by ELISA [1] | JAR 4 binding compared with wild-type recombinant fHbp [2]
ADALTAPLDHKDK [SEQ ID NO: 32] | no detectable binding | –
DHKDKGLQSLTLD [SEQ ID NO: 33] | no detectable binding | –
B1 | – | eliminated detectable JAR 4 binding
